Here are results for 8 molecules from patent US7091347B2, “Bicyclic pyridine and pyrimidine p38 kinase inhibitors” (Roche Palo Alto LLC, priority 2002, dated 2006).

Where a name gives a salt, the structure may show the parent alone.

One series concerns the target T1, p38 MAP kinase (UniProt Q16539).
T1 construct: fused on or other part: A His tag is implied by purification on a nickel column
Kind of series: Inhibition of p-38 (MAP) kinase in vitro assay (transfer of γ-33P from ATP to Myelin Basic Protein). The class given is biochemical. The settings on record: phosphorylated recombinant p38 MAP kinase, MBP substrate, γ-33P-ATP, 30° C. Here is the method:
The p-38 MAP kinase inhibitory activity of compounds of this invention in vitro was determined by measuring the transfer of the y-phosphate from γ-^33P-ATP by p-38 kinase to Myelin Basic Protein (MBP), using the a minor modification of the method described in Ahn, N. G.; et al. J. of Biol. Chem. Vol. 266(7), 4220–4227, (1991)
The phosphorylated form of the recombinant p38 MAP kinase was expressed with SEK-1 and MEKK in E. Coli (see, Khokhlatchev, A. et al. J. of Biol. Chem. Vol. 272(17), 11057–11062, (1997) and then purified by affinity chromatography using a Nickel column.
The phosphorylated p38 MAP kinase was diluted in kinase buffer (20 mM 3-(N-morpholino)propanesulfonic acid, pH 7.2, 25 mM β-glycerol phosphate, 5 mM ethylene glycol-bis(beta-aminoethyl ether)-N,N,N′,N′-tetraacetic acid, 1 mM sodium vanadate, 1 mM dithiothreitol, 40 mM magnesium chloride). Test compound dissolved in DMSO or only DMSO (control) was added and the samples were incubated for 10 min. at 30° C. The kinase reaction was initiated by the addition of a substrate cocktail containing MBP and γ-^33P-ATP. After incubating for an additional 20 min. at 30° C., the reaction was terminated by adding 0.75% phosphoric acid. The phosphorylated MBP was then separated from the residual γ-^33P-ATP using a phosphocellulose membrane (Millipore, Bedfrod, Mass.) and quantitated using a scintillation counter (Packard, Meriden, Conn.).
The p-38 inhibitory activities (expressed as IC50, the concentration causing 50% inhibition of the p-38 enzyme being analyzed) of the compounds listed in Table 1 in the specification are between 0.01 μM and 10 μM.

As to `Fc1ccccc1Cc1cc2cnc(NC3CCOCC3)nc2s1` (as salt: hydrochloride) [Compound 25, 2-(tetrahydropyran-4-ylamino)-6-[(2-fluorophenyl)methyl]thieno[2,3-d]pyrimidine], the melting point – broadly, the temperature of the solid-liquid transition – was in the range of 217 to 219 °C.

In turn, `O=C(c1ccccc1)c1cc2cnc(N[C@H]3CC[C@H](O)CC3)nc2s1` [Compound 1] yielded a melting point of 102.6 to 103.8 °C. At p38 MAP kinase, the IC50 (as a rule, the point on the concentration scale where inhibition reaches its midpoint) is 0.104 µM.

Regarding `Cl.O=C(c1ccccc1)c1cc2cnc(NC3CCOCC3)nc2s1` [Compound 3], the melting point lay in the range of 219.5 to 220.5 °C. For the same molecule, the IC50 at p38 MAP kinase is 0.221 µM.

As to `O=C(c1cc2cnc(NC3CCOCC3)nc2s1)c1ccccc1F` [Compound 9, 2-(tetrahydropyran-4-ylamino)-6-(2-fluorobenzoyl)thieno[2,3-d]pyrimidine], the melting point is 195.2 to 195.5 °C.

Molecule `CS(=O)(=O)N1CCC(Nc2ncc3cc(C(O)c4ccccc4)sc3n2)CC1.Cl` (centres unmarked) [Compound 23] came in with a melting point of 152.2 to 162.1 °C. Moreover, at p38 MAP kinase, the 50% inhibitory concentration (IC50) was 0.128 µM.

`c1ccc(Cc2cc3cnc(NC4CCCC4)nc3o2)cc1` [Compound 30, 2-(cyclopentylamino)-6-benzyl-furano[2,3-d]pyrimidine]: the IC50 at p38 MAP kinase was determined as 0.744 µM.

As to `Cn1c(Cc2ccccc2)cc2cnc(NC3CCCC3)nc21` [Compound 33, 2-(cyclopentylamino)-6-benzyl-7-methyl-pyrrolo[2,3-d]pyrimidine], the IC50 at p38 MAP kinase is 0.135 µM.

On to `Fc1ccc(Sc2cc3cnc(NC4CCOCC4)nc3s2)c(F)c1` [Compound 41, [6-(2,4-Difluorophenylsulfanyl)thieno[2,3-d]pyrimidin-2-yl]-(tetrahydropyran-4-yl)-amine], for which, on p38 MAP kinase, the IC50 was determined as 0.226 µM.
